In publication PMC10419416, “Fighting Pseudomonas aeruginosa Infections: Antibacterial and Antibiofilm Activity of D-Q53 CecB, a Synthetic Analog of a Silkworm Natural Cecropin B Variant” (International Journal of Molecular Sciences, 2023):
Converted amounts (≈) assume the structure as drawn. Like-named read-outs stand apart in the source and are kept apart here.

Key:
[1] = test system: P. aeruginosa ATCC 25668, mucoid strain; format: cell-based, Pseudomonas aeruginosa; settings: for biofilm biomass vs untreated controls (biofilm formation): 24 h
Protocol: (§1) An ON bacterial culture was diluted to 2 × 10^6 cells/mL in an LB medium. 50 µL/well were seeded in a sterile non-treated polystyrene 96-well plate (Corning) and added with 50 µL LB medium containing serial dilutions of each compound (final concentrations of L- and D-Q53 CecB peptides: from 0.034 to 17.6 µM; final concentrations of tobramycin: 0.27 and 0.53 μM, and from 2.14 to 17 μM). Each condition was tested in three-six replicates. Wells containing untreated bacteria (negative controls) or LB medium only (blank) were followed in parallel. Each plate was incubated for 24 h at 37 °C without agitation. After washing twice, samples were stained with a 0.1% crystal violet solution for 20 min, washed three times, and incubated in 30% acetic acid for 20 min, as in [74]. Plates were read at 595 nm using a microplate reader. For each sample, the biofilm biomass percentage was calculated relative to that of the untreated control showing the highest OD value, set equal to 100%. Each experiment was performed at least twice.

[2] = test system: P. aeruginosa ATCC 27853, non-mucoid strain; format: cell-based, Pseudomonas aeruginosa; settings: for biofilm biomass vs untreated controls (biofilm formation): 24 h
Protocol: as §1

[3] = test system: P. aeruginosa PAO1-L strain; test: microbe, parasite or virus in culture; format: cell-based, Pseudomonas aeruginosa; settings: Pseudomonas aeruginosa, value between parentheses, 24 h, 37 °C, plating on LBA
Protocol: (§2) The following strains were used: P. aeruginosa ATCC 27853, ATCC 25668, and PAO1-L (Lausanne subline). All strains were grown at 37 °C in Luria Bertani (LB) medium or in Luria Bertani Agar (LBA) plates.
(§3) The antibacterial activities of L- and D-Q53 CecB were evaluated by determining (i) the MIC and (ii) the MBC. Tobramycin (Merck) was used as an antibiotic control. (i) An overnight (ON) bacterial culture was diluted to 1 × 10^6 cells/mL in LB medium. 50 µL/well were seeded in sterile polypropylene 96-well plates (Corning, Corning, NY, USA) and added with 50 µL LB medium, containing serial dilutions of each compound (final concentrations of L- and D-Q53 CecB peptides from 1.1 to 35.2 µM; final concentrations of tobramycin from 0.26 to 17 μM; each condition in triplicate). Microbial suspensions in the growing medium (positive control) and wells with only the medium (negative controls) were processed in parallel. Plates were incubated 24 h at 37 °C with agitation (300 rpm), and the absorbance was measured at 600 nm in a microplate reader. The MIC was considered as the lowest concentration determining a delta optical density at 600 nm (ΔOD600) equal to 0 ± 0.05. The ΔOD600 was determined by subtracting the OD600 recorded at time 0 from that obtained after 24 h. Each experiment was performed at least three times. […] For each sample, 100 μL of 1:10, 1:100, and 1:1000 dilutions were plated on LBA plates, and colonies were counted after 24 h at 37 °C. […] Each experiment was performed at least twice.

[4] = test system: P. aeruginosa ATCC 25668, ATCC 27853, and PAO1-L strains; test: microbe, parasite or virus in culture; format: cell-based, Pseudomonas aeruginosa; settings: Pseudomonas aeruginosa; LB medium, 24 h, 37 °C, OD600; same value for all three strains; triplicate, at least three experiments
Protocol: as §2, §3

[5] = test system: P. aeruginosa ATCC 27853 and ATCC 25668 strains; test: microbe, parasite or virus in culture; format: cell-based, Pseudomonas aeruginosa; settings: Pseudomonas aeruginosa, 24 h
Protocol: as §2, §3

[6] = test system: P. aeruginosa ATCC 25668, mucoid strain; test: Degradation of pre-formed 24 h old biofilm, crystal violet; format: cell-based, Pseudomonas aeruginosa; settings: 1 h; L-Q53 CecB 1/2 to 8 MIC (except 4 MIC), tobramycin 1 to 8 MIC
Protocol: (§4) One hundred μL of bacteria (1 × 10^6 cells/mL), derived from a fresh ON culture, were seeded in a sterile non-treated polystyrene 96-well plate (Corning) and incubated for 24 h at 37 °C without agitation. […] Evaluation of biofilm biomass was performed using a crystal violet assay as described above (Section 4.8). Experiments were performed two-four times.

[7] = test system: P. aeruginosa ATCC 27853, non-mucoid strain; test: as above; format: cell-based, Pseudomonas aeruginosa; settings: 1 h; L-Q53 CecB 1/2 to 8 MIC, tobramycin 1 to 8 MIC
Protocol: as §4

[8] = test system: T1, human neutrophil elastase; test: Enzymatic digestion with human neutrophil elastase, RP-HPLC; format: in vitro ADME; settings: isolated enzyme elastase; peptide 1 mg/mL in 10 mM Tris-HCl pH 7.5, 20 U human leukocyte elastase, 37 °C, 5 h (300 min), RP-HPLC C18 peak integration; read-out: % of intact peptide
T1 construct: purchased Merck
Protocol: (§5) L- and D-Q53 CecB peptides, as well as the human LL-37 peptide (Merck, Burlington, MA, USA), were dissolved in 10 mM Tris-HCl, pH 7.5, at a final concentration of 1 mg/mL. Subsequently, 120 μL of each peptide solution were incubated at 37 °C with 20 U of human leukocyte elastase (Merck) or P. aeruginosa elastase (Elastin Products Company, Owensville, MO, USA) and 5 μL of 10 mM Tris-HCl, pH 7.5. At given time intervals (30, 60, 120, and 300 min), a volume corresponding to 30 μg of each peptide was diluted in 70 μL of 1% trifluoroacetic acid (TFA) to stop the reaction. Peptide suspensions,v without any enzyme (undigested controls), were processed in parallel. Each solution was analyzed by RP-HPLC, using a Phenomenex LC C18 analytical column (300 Å, […], 250 × 4.6 mm; Phenomenex, Torrance, CA, USA) and a Widepore C18 security guard cartridge (4 × 3.0 mm; Phenomenex, Torrance, CA, USA), in a 30 min-linear Acetonitrile (ACN) gradient (from 0% to 40% for L- and D-Q53 CecB peptides; from 20% to 60% for LL-37). A Waters Alliance 2695 Separations Module connected to a 996 PDA (Waters, Milford, MA, USA) was employed for RP-HPLC.

P. aeruginosa elastase = test system: T2, P. aeruginosa elastase; test: Enzymatic digestion with P. aeruginosa elastase, RP-HPLC; format: in vitro ADME; settings: isolated enzyme elastase; peptide 1 mg/mL in 10 mM Tris-HCl pH 7.5, 20 U P. aeruginosa elastase, 37 °C, 30 min, RP-HPLC C18 peak integration; read-out: % of full-length peptide
T2 construct: purchased Elastin Products Company
Protocol: as §5

[9] = concentrations from 8 to 1 MIC (1 MIC = 2.2 µM peptides, 2.14 µM tobramycin), 24 h static, 37 °C, stated for both strains

SMILES | biofilm biomass vs untreated controls (biofilm formation) ([1]; 1/4 MIC) | biofilm biomass vs untreated controls (biofilm formation) ([1]; 1/8 MIC) | decrement in biofilm biomass vs untreated controls (inhibition of biofilm formation) [1, 9] | biofilm biomass vs untreated controls (biofilm formation) ([2]; 1/4 MIC) | biofilm biomass vs untreated controls (biofilm formation) ([2]; 1/8 MIC) | decrement in biofilm biomass vs untreated controls (inhibition of biofilm formation) [2, 9] | MBC [3] | MIC [4] | MBC [5] | reduction of pre-formed biofilm biomass at all tested concentrations [6] | reduction of pre-formed biofilm biomass at all tested concentrations [7] | remaining at 5 h, 1 mg/mL [8] | remaining at 0.5 h, 1 mg/mL (P. aeruginosa elastase)
NC[C@H]1O[C@H](O[C@H]2[C@H](O)[C@@H](O[C@H]3O[C@H](CO)[C@@H](O)[C@H](N)[C@H]3O)[C@H](N)C[C@@H]2N)[C@H](N)C[C@@H]1O [Tobramycin, reference compound] | significantly higher | not significantly different | ~ 99.9% | not affected | not significantly different | ~ 99.9% | 8.56 µM (≈ 4 µg/mL) | 2.14 µM (≈ 1 µg/mL) | 4.29 µM (≈ 2.01 µg/mL) | not efficient | not efficient | – | –
CC[C@H](C)[C@H](NC(=O)[C@H](CCCCN)NC(=O)[C@H](CCC(=O)O)NC(=O)[C@H](CCCCN)NC(=O)[C@H](CO)NC(=O)[C@H](CCCCN)NC(=O)[C@H](CCCNC(=N)N)NC(=O)[C@H](Cc1ccccc1)NC(=O)[C@H](Cc1ccccc1)NC(=O)[C@H](CC(=O)O)NC(=O)CNC(=O)[C@H](CC(C)C)NC(=O)[C@@H](N)CC(C)C)C(=O)NCC(=O)N[C@@H](CCCCN)C(=O)N[C@@H](CCC(=O)O)C(=O)N[C@@H](Cc1ccccc1)C(=O)N[C@@H](CCCCN)C(=O)N[C@@H](CCCNC(=N)N)C(=O)N[C@H](C(=O)N[C@H](C(=O)N[C@@H](CCC(N)=O)C(=O)N[C@@H](CCCNC(=N)N)C(=O)N[C@H](C(=O)N[C@@H](CCCCN)C(=O)N[C@@H](CC(=O)O)C(=O)N[C@@H](Cc1ccccc1)C(=O)N[C@@H](CC(C)C)C(=O)N[C@@H](CCCNC(=N)N)C(=O)N[C@@H](CC(N)=O)C(=O)N[C@@H](CC(C)C)C(=O)N[C@H](C(=O)N1CCC[C@H]1C(=O)N[C@@H](CCCNC(=N)N)C(=O)N[C@H](C(=O)N[C@@H](CCC(=O)O)C(=O)N[C@@H](CO)C(=O)O)[C@@H](C)O)C(C)C)[C@@H](C)CC)C(C)C)[C@@H](C)CC [LL-37, reference compound] | – | – | – | – | – | – | – | – | – | – | – | 8.7% | ~0.2%
